What is called melting point is the temperature, or range, at which the solid turns liquid.

Take `CCCCc1oc2cc(C)c(C(=O)OC)cc2c1C(=O)c1ccc(OCCCN2CCCCC2)cc1.Cl`: the melting point is 181 to 183 °C.

`CCCCc1oc2cccc(C(=O)OC)c2c1C(=O)c1ccc(OCCCN2CCCCC2)cc1.O=C(O)C(=O)O` [Example 31, Methyl 2-butyl-3-[4-(3-(1-piperidinyl)propoxy]benzoyl]-1-benzofuran-4-carboxylate oxalate] showed a melting point of 160 °C.
